This note sets out measurements from a melting point compilation (Tetko et al.; mined from patent text by program, amines drawn as free bases though some values may be those of a salt).

Structures are written as SMILES.

Molecule `COc1ccc2[nH]c(SCc3nccc(N4CCCC4)n3)nc2c1` came in with a melting point of 199 to 202 °C.
For `O=C(O)c1ccc(OCCCCCCc2ccc3cc(O)c(O)cc3c2)cc1` the value was 160 to 162 °C; for `CCOc1ccc(-c2nc(-c3ccc(O)c(C(=O)O)n3)cs2)cc1OCC`, 161 to 162 °C; for `COc1cc2c(Nc3ccc(Sc4ccccn4)c(Cl)c3)c(C#N)cnc2cc1N1CCC(N2CCCC2)CC1`, 203 to 205 °C.
As for `COc1ccc(C23CCCC2(c2ccc(OC)cc2)C3)cc1` (centres undefined), the figure is 92 to 93 °C.
As for `CC1(C)[C@H](c2nc(-c3ccc(F)cc3)no2)CC[C@]1(C)NCC(=O)N1C[C@@H](F)C[C@H]1C#N`, the figure is 160 to 163 °C.
The molecule `CCOC(=O)c1c(-c2ccccc2)n(C)n(-c2ccc(C#N)cc2)c1=O` yielded a melting point of 218 to 220 °C.
As for `Cc1ncnn1-c1ccc([N+](=O)[O-])cc1F`, the figure is 56 to 58 °C.
With `CC(C)(C)c1cc(CCc2ccccc2NC(=O)NCC2(c3ccc4c(c3)OCO4)CCCC2)cc(C(C)(C)C)c1O`, the melting point was 188 to 189 °C.
Take `O=C1CCN(Cc2ncccc2O)CC1C(c1ccccc1)c1ccccc1` (centres undefined): the melting point is 121 to 122 °C.
As for `C1COCCN2CCOCCOCCN(CCO1)CCSCCSCC2`, the figure is 78 to 80 °C; as for `O=C(O)Cc1ccc(-c2ccc(F)cc2F)c(F)c1`, 145 to 147 °C; as for `CC1(C)OC(=O)Nc2ccc(-c3cccc(Br)c3)cc21`, 174 to 175 °C.
As for `C#CCN(C(=O)n1oc(C)c(Cl)c1=O)c1ccc(C)cc1`, the figure is 79 °C; as for `O=C1CCCN1c1cccc(-c2ccnc3c([N+](=O)[O-])cnn23)c1`, 226 to 228 °C.
With `CC1(C)CCC(C)(C)c2cc(-c3cc(Br)cc(C(=O)O)c3)ccc21`, the melting point worked out at 165 °C.
As to `CCCCc1nn2cc(C(=O)OCC)ccc2c1C(=O)c1ccc(Br)cc1`, the melting point was less than 50 °C.
The molecule `CCOC(=O)c1ccc(NC(=O)C=C(c2ccccc2)c2ccccc2)cc1` returned a melting point of 166 to 169 °C.
As for `O=C(c1cc(O)c(O)cc1[N+](=O)[O-])N1CCC(N2CCCCC2)CC1`, the figure is 290 °C.
Take `CCCCOc1ccc2c(c1)C(N(CC(=O)NC(=N)N)S(C)(=O)=O)CC(C)(C)O2` (centres undefined): the melting point fell in the range of 112 to 114 °C.
As for `COc1ccc(/C=C/C(=O)Nc2ccccc2C(=O)O)cn1`, the figure is 209 to 211 °C.
Regarding `O=C(O)C[C@H]1C[C@@H](CCCCCCc2ccc(Cl)cc2Cl)OC1=O` (relative stereo), the melting point is 57 to 59 °C.
For `CC(=O)Nc1ccc(C(=O)C2CCN(CC(=O)c3ccc(F)cc3)CC2)cc1` the value was 168 to 170 °C; for `Nc1nc2c(sc(=S)n2C2OC(COC(=O)c3ccccc3)C(OC(=O)c3ccccc3)C2OC(=O)c2ccccc2)c(=O)[nH]1` (centres undefined), 230 to 233 °C; for `O=C(NC1CCCC1)c1ccccc1C(c1ccc(O)cc1)c1ccc(O)cc1`, 148 to 150 °C.
As for `COC(=O)c1cnccc1SCc1ccc(OC)cc1`, the figure is 108 to 110 °C; as for `O=C(CN1CCC(CN2C(=O)c3ccccc3C2=O)CC1)c1ccc(F)cc1`, 110 to 113 °C; as for `CCN1C(=O)Cc2cc(C(C)=O)ccc21`, 141 to 145 °C.
For `CC(C)=NNc1cc2c(nn1)CCN(C(=O)c1ccccc1F)C2` the value was 200 to 203 °C; for `CC(C)(C)c1ccc(-c2cc(=O)cc(N3CCOCC3)o2)cc1`, 156 °C; for `CNc1c(S(=O)(=O)C(F)(F)F)c(C#N)nn1-c1c(Cl)cc(C(F)(F)F)cc1Cl`, 227 °C.
`O=C1c2cc(F)ccc2CCc2cccnc21` had a melting point of 78 to 81 °C.
For `O=C(c1ccccc1)C(CCCCl)c1ccccc1` (centres undefined), the melting point was in the range of 72 to 74 °C.
For `c1ccc(-c2nnsc2-c2ccc3c(c2)OCO3)cc1` the value was 107 to 109 °C.
The molecule `N#CC(C(=O)Nc1ccccc1)C(=O)c1nn(-c2ccccc2)c2c1Cc1ccc(Cl)cc1-2` (centres undefined) registered a melting point of 259 to 263 °C.
Molecule `O=C1NCC(CO)C1(c1ccccc1)c1ccccc1` (centres undefined) returned a melting point of 145 to 148 °C.
In the case of `COc1cc2ncnc(Nc3ccc4ccccc4n3)c2cc1OC`, the melting point lay within 215 to 216 °C.
For `CCNC(=O)Nc1ccc2c(=O)n(CCCCN3CC=C(c4ccccc4)CC3)c(=O)[nH]c2c1` the value was 220 °C.
Consider `CCCCSc1cn(C)cc(-c2cccc(C(F)(F)F)c2)c1=O`, for which the melting point is 109 to 110 °C.
For the molecule `CC(=O)N1c2ccccc2-c2c([N+](=O)[O-])cnn2C1C` (centres undefined), the melting point lay in the range of 149 to 150 °C.
`CC(C)c1nc2c([nH]1)c(=O)[nH]c(=O)n2Cc1cccc(Cl)c1`: the melting point was in the range of 319 to 321 °C.
For `Cc1cccc(NC(=O)Nc2cccc3c2C2CC(O)CCN2C3=O)n1` (centres undefined) the value was 240 to 242 °C; for `COc1cn(-c2cc(-c3cnn(C)c3)ccc2F)nc(-c2ccnn2-c2ccccc2)c1=O`, 93 to 102 °C.
In turn, `CC(C)(C)c1cc(SC[Si](C)(C)C)cc(C(C)(C)C)c1O` displayed a melting point of 100 to 101 °C.
As for `Cc1cc(CCCCCSc2ccc(C3=NCCO3)cc2)on1`, the figure is 89 to 91 °C.
Turning to `O=c1[nH]c(CCl)c(I)c(=O)[nH]1`, the melting point was 225 °C.
In turn, `C1CSC(SSCCSSC2=NCCS2)=N1` came in with a melting point of 102 °C.
`NS(=O)(=O)c1ccc(NN=Cc2ccc(F)cc2)cc1` gave a melting point of 205 to 206 °C.
Consider `CC(C)CNC(=O)c1ccc(C(=O)N2CCC[C@@H]3CCCC[C@H]32)cc1N` (relative stereo), for which the melting point lay within 153 to 155 °C.
For `Cc1ccc(-c2ccc(S(=O)(=O)Nc3cc(C)no3)cc2)cc1` the value was 194 to 198 °C; for `Cn1cc2c(cc1=O)CCCC2=O`, 94 to 97 °C; for `CC(C)=NOCc1nc2c(N)nc3cc(Br)cnc3c2n1CC(C)C`, 176 to 178 °C.
For `CC(=O)NCC1CN(c2ccc(-n3cnc(Cn4cccn4)c3)c(F)c2)C(=O)O1` (centres undefined) the value was 158 to 160 °C; for `Cn1nnc2cccc(C(O)c3cccc(F)c3)c21` (centres undefined), 152 °C; for `O=C1NC(N2CCCCCC2)=N/C1=C\c1c[nH]c2ncc(F)cc12`, 299 °C.
For the molecule `CCCN(CCC)NNc1nc(C(=O)c2ccccc2O)nc(C(=O)c2ccccc2O)n1`, the melting point was 254 to 255 °C.
In turn, `CSC(=NC#N)Nc1ccc(C#N)cc1` returned a melting point of 220 to 225 °C.
For `CC(O)c1ccc(-c2ccc(Cl)c(Cl)c2)o1` (centres undefined) the value was 82.5 to 83.5 °C.
As for `O=C(c1ccc(Nc2ccnc3cc(C(F)(F)F)ccc23)cc1)N1CC=C(c2ccc(Cl)cc2)CC1`, the figure is 225 to 226 °C.
`FC(F)(F)c1cccc(N2CCC(N=Cc3cnc4ccccc4c3)=N2)c1` gave a melting point of 209 to 210 °C.
In the case of `N#CC1(C#N)CCOCC1`, the melting point was in the range of 110 to 112 °C.
Molecule `CN1CCN(c2cccc3c2C[C@H](NC(=O)c2ccc(OS(C)(=O)=O)cc2)CC3)CC1` gave a melting point of 199 to 200 °C.
The molecule `CCC(C)(C)c1ccc(OCCCCc2c(O)cc3ccccc3c2C(N)=O)c(C(C)(C)CC)c1` showed a melting point of 118 to 124 °C.
In turn, `Cc1cc(SC2=C(O)CC(CCc3ccsc3CO)(C(C)C)OC2=O)c(C(C)(C)C)cc1N` (centres undefined) registered a melting point of 107 to 115 °C.
For `O=c1[nH]c2cc(F)ccc2c(=O)n1CCCN1CC=C(c2ccc(Cl)cc2)CC1` the value was 197 to 198 °C; for `C#CCN(Cc1ccc2nc[nH]c(=O)c2c1)c1ccc(C(=O)NCc2cccc([N+](=O)[O-])c2)cc1`, 93 to 96 °C.
On to `Cc1cc(C)n(C(=O)C(C)NS(=O)(=O)c2ccc(Cl)cc2)n1` (centres undefined), for which the melting point came out at 150 °C.
Regarding `O=C1NC(=O)C(Cc2ccc(OCCON=Cc3cccnc3)cc2)S1` (centres undefined), the melting point is 155 to 157 °C.
For the molecule `O=C1Cc2cccc(S(=O)c3ccc(Cl)cc3)c2N1` (centres undefined), the melting point fell in the range of 191 to 194 °C.
For `Cc1nc(-c2ccc(C(F)(F)F)cc2)sc1COc1ccc(CC(=O)O)cc1Cl` the value was 126 to 127 °C; for `CC1(C)OC(c2ccc(S(N)(=O)=O)cc2)=C(I)C1=O`, 179 to 180 °C.
For `CC(=O)C1CCC2C3CC=C4CC(F)CCC4(C)C3CCC12C` (centres undefined) the value was 166 to 167 °C; for `COc1ccc(C[C@H]2[C@H](CO)CCCN2C)cc1` (relative stereo), 66 to 68 °C; for `C=CC(c1cn(-c2ccccc2)nc1OCc1ccc(OCc2nc(-c3ccco3)oc2C)c(OC)c1)n1cncn1` (centres undefined), 115 to 116 °C.
The molecule `Nc1n[nH]c2nc(C3CC3)cc(-c3ccc(Cl)c(Cl)c3)c12` returned a melting point of 256 to 258 °C.
In turn, `COc1ccc2c(c1)C(c1ccncc1)Nc1cc(Cl)ccc1O2` (centres undefined) displayed a melting point of 186 to 188 °C.
As for `O=C1Nc2ccccc2Sc2c1csc2Cl`, the figure is 287 to 288 °C.
Turning to `COc1ccc2[nH]nc(N3CCN(C)CC3)c2c1`, the melting point lay in the range of 158 to 160 °C.
For `CC(=O)c1cnc2c(c1)[C@@H](NC(=O)c1ccccc1Cl)[C@H](O)C(C)(C)O2` (relative stereo), the melting point lay in the range of 243 to 244 °C.
As to `CCOC(=O)CCc1nc(-c2cccc(OC)c2)nc2ccccc12`, the melting point amounted to 70 °C.
For `O=S1(=O)NCN(C2CC2)c2c(Cl)cccc21` the value was 142 to 143 °C; for `O=C(NO)c1ccc(CNC(=O)c2[nH]c(-c3ccccc3)cc2-c2ccc(F)cc2)cc1`, 215 to 216 °C.
For `NC(=O)Cc1ccc(C2CCCCC2)cc1` the value was 167 to 168 °C.
The molecule `CNC(=O)N1CCC(c2nn(-c3ccc(F)cc3)c3ccccc23)CC1` displayed a melting point of 113 to 115 °C.
For `COc1c(O)c([N+](=O)[O-])cc(C(=O)c2ccccc2)c1Cl` the value was 143 to 145 °C; for `COC(=O)NS(=O)(=O)Nc1c(C(C)C)cccc1C(C)C`, 152 to 155 °C.
`O=C(Nc1cccc(Cl)c1)Nc1ccc(Br)cc1-c1nnn[nH]1` displayed a melting point of 258 to 263 °C.
For `OC(c1cccc(-c2cc3ccccc3[nH]2)c1)c1cc2ccccc2[nH]1` (centres undefined) the value was 82 to 85 °C; for `O=C(O)C(=O)CC(=O)c1cn(Cc2ccc(F)cc2)c2ccccc12`, 161 to 162 °C.

As a reminder, the melting point is the temperature, or range, at which the solid turns liquid.
